ChEMBL document CHEMBL6092169, “Development of selective heterocyclic PDE4 inhibitors for treatment of psoriasis” (Eur J Med Chem, 2024)
The source made the active and inactive calls. No cut-off for these calls is given here.

Tests used:
[1] = target: T1, 3',5'-cyclic-AMP phosphodiesterase 4D (Homo sapiens, UniProt Q08499); test: Inhibition of full-length PDE4D2 (unknown origin) using FAM-cAMP as substrate at 1 uM preincubated with compound for 15 mins followed by substrate addition and measured after 30 mins by fluorescence polarization based IMAP assay relative to control; details: time 45.0 min
RAW264.7 [2] = test: Anti-inflammatory activity in mouse RAW264.7 cells assessed as inhibition of LPS-induced TNF-alpha production at 10 uM incubated for 24 hrs by ELISA relative to control; type: functional; design: scale not given: the % may be the effect or the level left
Mus musculus [3] = test: Anti-inflammatory activity against imiquimod-induced psoriasis in male Balb/c mouse model assessed as inhibition of TNF-alpha expression in skin at 0.3 to 1.2 % administration as ointment pretreated with IMQ for 4 hrs followed by compound addition once daily from day 2 to 8 by ELISA; type: functional, organism-based; details: dose 0.3-1.2 %, time 2-8 day
[4] = Tmax in male ICR mouse at 10 mg/kg, po measured for 0.25 to 24 hrs by LC-MS/MS analysis; type: ADME, organism-based; details: in vivo, time 0.25-24 hrs
[5] = AUC (0 to t) in male ICR mouse at 10 mg/kg, po measured for 0.25 to 24 hrs by LC-MS/MS analysis; type: ADME, organism-based; details: in vivo, time 0.25-24 hrs
[6] = Half life in male ICR mouse at 5 mg/kg, iv measured for 0.083 to 24 hrs by LC-MS/MS analysis; type: ADME, organism-based; details: in vivo, time 0.083-24 hrs
Mus musculus [7] = test: Anti-inflammatory activity against imiquimod-induced psoriasis in male Balb/c mouse model assessed as inhibition of IL-6 expression in skin at 0.3 to 1.2 % administration as ointment pretreated with IMQ for 4 hrs followed by compound addition once daily from day 2 to 8 by ELISA; type: functional, organism-based; details: dose 0.3-1.2 %, time 2-8 day
[8] = Cytotoxicity against human HaCaT cells assessed as reduction in cell viability incubated for 24 hrs by CCK-8 assay; type: toxicity, cell-based
[9] = AUC (0 to t) in male ICR mouse at 5 mg/kg, iv measured for 0.083 to 24 hrs by LC-MS/MS analysis; type: ADME, organism-based; details: in vivo, time 0.083-24 hrs
Mus musculus [10] = organism: Mus musculus; test: Anti-inflammatory activity against imiquimod-induced psoriasis in male Balb/c mouse model assessed as reduction in skin lesions pretreated with IMQ for 4 hrs followed by compound addition once daily from day 2 to 8; type: functional, organism-based; details: dose 0.3-1.2 %, time 2-8 day
Mus musculus [11] = test: (§1) Anti-inflammatory activity against imiquimod-induced psoriasis in male Balb/c mouse model assessed as reduction in erythema score at 0.3 to 1.2 % administration as ointment pretreated with IMQ for 4 hrs followed by compound addition once daily from day 2 to 8; type: functional, organism-based; details: dose 0.3-1.2 %, time 2-8 day
[12] = Clearance in male ICR mouse at 5 mg/kg, iv measured for 0.083 to 24 hrs by LC-MS/MS analysis; type: ADME, organism-based; details: in vivo, time 0.083-24 hrs
Mus musculus [13] = test: Anti-inflammatory activity against imiquimod-induced psoriasis in male Balb/c mouse model assessed as reduction in spleen weight at 0.3 to 1.2 % administration as ointment pretreated with IMQ for 4 hrs followed by compound addition once daily from day 2 to 8; type: functional, organism-based; details: dose 0.3-1.2 %, time 2-8 day
[14] = Oral bioavailability in male ICR mouse at 10 mg/kg measured for 0.25 to 24 hrs by LC-MS/MS analysis; type: ADME, organism-based; details: in vivo, time 0.25-24 hrs
[15] = Half life in male ICR mouse at 10 mg/kg, po measured for 0.25 to 24 hrs by LC-MS/MS analysis; type: ADME, organism-based; details: in vivo, time 0.25-24 hrs
[16] = Drug absorption in suckling pig skin assessed as skin permeability by measuring transdermal amount per unit area administered topically as 1.2% ointment and measured upto 24 hrs by Franz diffusion cell system; type: ADME, tissue-based, Sus scrofa, Skin of body
[17] = Apparent volume of distribution in male ICR mouse at 5 mg/kg, iv measured for 0.083 to 24 hrs by LC-MS/MS analysis; type: ADME, organism-based; details: in vivo, time 0.083-24 hrs, read-out: Vz
Mus musculus [18] = test: as §1, with “immune cell infiltration” for “erythema score”, “8 by H and E staining based microscopic analysis” for “8”; type: functional, organism-based; details: dose 0.3-1.2 %, time 2-8 day
[19] = Cytotoxicity against mouse RAW264.7 cells assessed as reduction in cell viability incubated for 24 hrs by CCK-8 assay; type: toxicity, cell-based
[20] = Initial plasma concentration in male ICR mouse at 5 mg/kg, iv measured for 0.083 to 24 hrs by LC-MS/MS analysis; type: ADME, organism-based; details: time 0.083-24 hrs
RAW264.7 [21] = test: Anti-inflammatory activity in mouse RAW264.7 cells assessed as inhibition of LPS-induced TNF-alpha production incubated for 24 hrs by ELISA; type: functional, cell-based; details: RAW264.7, 24 h
[22] = AUC (0 to infinity) in male ICR mouse at 10 mg/kg, po measured for 0.25 to 24 hrs by LC-MS/MS analysis; type: ADME, organism-based; details: in vivo, time 0.25-24 hrs
RAW264.7 [23] = test: Anti-inflammatory activity in mouse RAW264.7 cells assessed as inhibition of LPS-induced IL-6 production incubated for 24 hrs by ELISA; type: functional, cell-based; details: RAW264.7, 24 h
Mus musculus [24] = test: as §1, with “increase” for “reduction”, “skin scales” for “erythema score”, “8 by H and E staining based microscopic analysis” for “8”; type: functional, organism-based; details: dose 0.3-1.2 %, time 2-8 day
HaCaT = test: Anti-inflammatory activity in human HaCaT cells assessed as inhibition of M5-induced TNF-alpha production incubated for 24 hrs by ELISA; type: functional, cell-based
Mus musculus [25] = test: Anti-inflammatory activity against imiquimod-induced psoriasis in male Balb/c mouse model assessed as reduction in thickness score at 0.3 to 1.2 % administration as ointment pretreated with IMQ for 4 hrs followed by compound addition once daily from day 2 to 8; type: functional, organism-based; details: dose 0.3-1.2 %, time 2-8 day
[26] = Cmax in male ICR mouse at 10 mg/kg, po measured for 0.25 to 24 hrs by LC-MS/MS analysis; type: ADME, organism-based; details: in vivo, time 0.25-24 hrs
Mus musculus [27] = test: Anti-inflammatory activity against imiquimod-induced psoriasis in male Balb/c mouse model assessed as reduction in scales score at 0.3 to 1.2 % administration as ointment pretreated with IMQ for 4 hrs followed by compound addition once daily from day 2 to 8; type: functional, organism-based; details: dose 0.3-1.2 %, time 2-8 day
Mus musculus [28] = test: Anti-inflammatory activity against imiquimod-induced psoriasis in male Balb/c mouse model assessed as increase in skin thickness at 0.3 to 1.2 % administration as ointment pretreated with IMQ for 4 hrs followed by compound addition once daily from day 2 to 8 by H and E staining based microscopic analysis; type: functional, organism-based; details: dose 0.3-1.2 %, time 2-8 day
[29] = AUC (0 to infinity) in male ICR mouse at 5 mg/kg, iv measured for 0.083 to 24 hrs by LC-MS/MS analysis; type: ADME, organism-based; details: in vivo, time 0.083-24 hrs
Mus musculus [30] = test: as §1, with “Ki67+ cells in back skin” for “erythema score”, “8 by Immunohistochemistry based microscopic analysis” for “8”; type: functional, organism-based; details: dose 0.3-1.2 %, time 2-8 day
[31] = Drug absorption in suckling pig skin assessed as skin permeability by measuring steady state penetration rate administered topically as 1.2% ointment and measured upto 24 hrs by Franz diffusion cell system; type: ADME, tissue-based, Sus scrofa, Skin of body
[32] = target: T1, 3',5'-cyclic-AMP phosphodiesterase 4D; test: Inhibition of full-length PDE4D2 (unknown origin) using FAM-cAMP as substrate preincubated with compound for 15 mins followed by substrate addition and measured after 30 mins by fluorescence polarization based IMAP assay

T1 sequence (Q08499 whole entry): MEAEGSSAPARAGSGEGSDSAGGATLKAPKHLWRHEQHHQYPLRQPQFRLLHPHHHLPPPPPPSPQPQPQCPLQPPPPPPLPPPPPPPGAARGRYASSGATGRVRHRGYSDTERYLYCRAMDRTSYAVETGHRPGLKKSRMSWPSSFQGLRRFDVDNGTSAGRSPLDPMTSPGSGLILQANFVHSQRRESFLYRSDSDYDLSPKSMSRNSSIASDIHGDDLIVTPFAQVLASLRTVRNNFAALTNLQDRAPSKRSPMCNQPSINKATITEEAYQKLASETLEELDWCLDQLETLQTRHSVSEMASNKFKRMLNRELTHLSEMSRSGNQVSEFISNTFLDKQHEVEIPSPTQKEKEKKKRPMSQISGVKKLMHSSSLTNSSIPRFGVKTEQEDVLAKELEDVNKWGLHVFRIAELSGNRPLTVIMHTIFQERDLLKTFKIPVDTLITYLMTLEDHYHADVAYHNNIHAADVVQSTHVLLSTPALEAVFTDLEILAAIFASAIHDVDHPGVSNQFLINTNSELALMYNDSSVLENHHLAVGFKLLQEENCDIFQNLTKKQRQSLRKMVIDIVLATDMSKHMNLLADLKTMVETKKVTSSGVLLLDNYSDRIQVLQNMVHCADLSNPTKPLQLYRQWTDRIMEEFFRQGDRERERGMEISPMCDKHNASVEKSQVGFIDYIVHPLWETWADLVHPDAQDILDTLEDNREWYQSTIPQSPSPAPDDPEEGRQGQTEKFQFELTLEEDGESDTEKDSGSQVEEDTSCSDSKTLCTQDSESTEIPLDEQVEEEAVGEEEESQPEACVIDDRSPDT

SMILES: O=C(NCc1c(F)cc(F)cc1F)c1coc(-c2ccc(OC(F)F)c(OCC3CC3)c2)n1
- inhibition [1]: 87.8%
- Activity (RAW264.7 [2]): 7.53%

SMILES: O=C(Nc1ccc2ncsc2c1)c1coc(-c2ccc(OC(F)F)c(OCC3CC3)c2)n1
- inhibition [1]: 39.6%
- Activity (RAW264.7 [2]): 25.05%

SMILES: O=C(NCc1cc(F)ccc1F)c1c[nH]c(-c2ccc(OC(F)F)c(OCC3CC3)c2)n1
- Activity (Mus musculus [3]): Active
- Tmax [4]: 1 h
- AUC(0-t) [5]: 3570 ng·h/mL
- half-life [6]: 0.94 h
- Activity (Mus musculus [7]): Active
- CC50 at 24 h [8]: > 50 µM
- AUC(0-t) [9]: 5010 ng·h/mL
- Activity (Mus musculus [10]): Dose-dependent-effect
- Activity (Mus musculus [11]): Active
- clearance [12]: 16.6 mL/min/kg
- Activity (Mus musculus [13]): Active
- bioavailability [14]: 35.6%
- half-life [15]: 2.21 h
- Drug absorption [16]: 81.9 microg/cm2
- Vd [17]: 1.35 L/kg
- Activity (Mus musculus [18]): Active
- CC50 at 24 h [19]: > 50 µM
- C0 [20]: 7320 ng/mL
- IC50 (RAW264.7 [21]): 21.4 µM
- AUC(0-inf) [22]: 3930 ng·h/mL
- IC50 (RAW264.7 [23]): 29.2 µM
- Activity (Mus musculus [24]): Active
- IC50 (HaCaT): 22.9 µM
- Activity (Mus musculus [25]): Active
- Cmax [26]: 810 ng/mL
- Activity (Mus musculus [27]): Active
- Activity (Mus musculus [28]): Active
- AUC(0-inf) [29]: 5020 ng·h/mL
- Activity (Mus musculus [30]): Active
- Jss [31]: 3.45 ug/cm2.hr

SMILES: O=C(NCc1cnccn1)c1c[nH]c(-c2ccc(OC(F)F)c(OCC3CC3)c2)n1
- inhibition [1]: 95.9%
- Activity (RAW264.7 [2]): 16.03%

SMILES: Cn1cc(NC(=O)c2c[nH]c(-c3ccc(OC(F)F)c(OCC4CC4)c3)n2)cn1
- inhibition [1]: 78.8%
- Activity (RAW264.7 [2]): 27.5%

SMILES: O=C(NCC1CCOCC1)c1c[nH]c(-c2ccc(OC(F)F)c(OCC3CC3)c2)n1
- inhibition [1]: 93.9%
- Activity (RAW264.7 [2]): 24.03%

SMILES: O=C(NCc1ccc2ccccc2c1)c1c[nH]c(-c2ccc(OC(F)F)c(OCC3CC3)c2)n1
- inhibition [1]: 82.3%
- Activity (RAW264.7 [2]): 9.03%

SMILES: O=C(NCc1ccccc1)c1coc(-c2ccc(OC(F)F)c(OCC3CC3)c2)n1
- inhibition [1]: 89.8%
- Activity (RAW264.7 [2]): 8.13%

SMILES: O=C(Nc1nc2ccccc2s1)c1coc(-c2ccc(OC(F)F)c(OCC3CC3)c2)n1
- inhibition [1]: 33.4%
- Activity (RAW264.7 [2]): 25.84%

SMILES: O=C(Nc1ccc2[nH]ccc2c1)c1c[nH]c(-c2ccc(OC(F)F)c(OCC3CC3)c2)n1
- inhibition [1]: 83.5%
- Activity (RAW264.7 [2]): 21.36%

SMILES: O=C(NCc1ccc(F)cc1F)c1coc(-c2ccc(OC(F)F)c(OCC3CC3)c2)n1
- inhibition [1]: 67.6%
- Activity (RAW264.7 [2]): 18.06%

SMILES: O=C(Nc1ccncc1)c1coc(-c2ccc(OC(F)F)c(OCC3CC3)c2)n1
- inhibition [1]: 59%
- Activity (RAW264.7 [2]): 1.77%

SMILES: O=C(Nc1ccncc1)c1c[nH]c(-c2ccc(OC(F)F)c(OCC3CC3)c2)n1
- inhibition [1]: 99.3%
- Activity (RAW264.7 [2]): 15.37%

SMILES: O=C(O)c1c[nH]c(-c2ccc(OC(F)F)c(OCC3CC3)c2)n1
- inhibition [1]: 35.7%
- Activity (RAW264.7 [2]): 4.22%

SMILES: O=C(Nc1ccccc1)c1c[nH]c(-c2ccc(OC(F)F)c(OCC3CC3)c2)n1
- inhibition [1]: 64.9%
- Activity (RAW264.7 [2]): 9.32%

SMILES: O=C(NCc1cc(F)ccc1F)c1c[nH]c(-c2ccc(OC(F)F)c(OC(F)F)c2)n1
- inhibition [1]: 93.6%
- Activity (RAW264.7 [2]): 14.69%

SMILES: O=C(NCc1c(F)cccc1F)c1c[nH]c(-c2ccc(OC(F)F)c(OCC3CC3)c2)n1
- IC50 [32]: 0.0159 µM
- Activity (RAW264.7 [2]): 13.88%

SMILES: O=C(NCc1ccccn1)c1c[nH]c(-c2ccc(OC(F)F)c(OCC3CC3)c2)n1
- inhibition [1]: 96.7%
- Activity (RAW264.7 [2]): 6.39%

SMILES: O=C(Nc1ccccc1)c1coc(-c2ccc(OC(F)F)c(OCC3CC3)c2)n1
- inhibition [1]: 38.8%
- Activity (RAW264.7 [2]): 15.78%
